Test results taken from patent US11014902B2, “MYC G-quadruplex stabilizing small molecules and their use” (The United States of America, as represented by the …, priority 2015, dated 2021).

Columns and labels:
Experiment in all cases: NCI-60 cell growth (SRB)
Format in all cases: cell-based
PC-3 = details: PC-3, Prostate Cancer; 10 μM, 48 hours
Experimental: (§1) This example illustrates that Compounds 1 and 23 can be used in inhibit the growth of c-Myc expressing cancer cell lines in vitro. The NCI-60 panel of cancer cell lines (see Shoemaker, Nat. Rev. Cancer, 6, 813-823, 2006, and dtp.cancer.gov/discovery_development/nci-60/) was assayed for cell growth in the presence of 10 μM Compound 1 or Compound 23 for 48 hours. At 48 hours, the assay was terminated by fixation with TCA and determination of relative cell counts by addition of Sulforhodamine B (SRB, see Alley et al., Cancer Research, 48: 589-601, 1988.). Growth percent was determined by comparison of SRB reading of a duplicate plate of cells taken at the time of compound addition to the SRB reading at the termination of the treatment. The following table provides a summary of the percent of growth of each cell line in the panel compared to control (no treatment), as well as the mean delta and range of percent growth compared to control across the panel of cell lines for each treatment condition.

UACC-257 = details: UACC-257, Melanoma; 10 μM, 48 hours
Experimental: as §1

TK-10 = details: TK-10, Renal Cancer; 10 μM, 48 hours
Experimental: as §1

NCI-H322M = details: Non-Small Cell Lung Cancer, 10 μM, 48 hours
Experimental: as §1

HCT-116 = details: HCT-116, Colon Cancer; 10 μM, 48 hours
Experimental: as §1

SN12C = details: Renal Cancer, 10 μM, 48 hours
Experimental: as §1

NCI-H23 = details: NCI-H23, Non-Small Cell Lung Cancer; 10 μM, 48 hours
Experimental: as §1

SR = details: Leukemia, 10 μM, 48 hours
Experimental: as §1

OVCAR-3 = details: OVCAR-3, Ovarian Cancer; 10 μM, 48 hours
Experimental: as §1

CAKI-1 = details: CAKI-1, Renal Cancer; 10 μM, 48 hours
Experimental: as §1

NCI-H522 = details: NCI-H522, Non-Small Cell Lung Cancer; 10 μM, 48 hours
Experimental: as §1

HS 578T = details: Breast Cancer, 10 μM, 48 hours
Experimental: as §1

UACC-62 = details: UACC-62, Melanoma; 10 μM, 48 hours
Experimental: as §1

SF-539 = details: SF-539, CNS Cancer; 10 μM, 48 hours
Experimental: as §1

UO-31 = details: UO-31, Renal Cancer; 10 μM, 48 hours
Experimental: as §1

U251 = details: U251, CNS Cancer; 10 μM, 48 hours
Experimental: as §1

SF-295 = details: SF-295, CNS Cancer; 10 μM, 48 hours
Experimental: as §1

KM12 = details: KM12, Colon Cancer; 10 μM, 48 hours
Experimental: as §1

SK-MEL-28 = details: SK-MEL-28, Melanoma; 10 μM, 48 hours
Experimental: as §1

OVCAR-8 = details: OVCAR-8, Ovarian Cancer; 10 μM, 48 hours
Experimental: as §1

NCI-H226 = details: NCI-H226, Non-Small Cell Lung Cancer; 10 μM, 48 hours
Experimental: as §1

A549/ATCC = details: Non-Small Cell Lung Cancer, 10 μM, 48 hours
Experimental: as §1

RPMI-8226 = details: RPMI-8226, Leukemia; 10 μM, 48 hours
Experimental: as §1

SNB-19 = details: SNB-19, CNS Cancer; 10 μM, 48 hours
Experimental: as §1

SW-620 = details: SW-620, Colon Cancer; 10 μM, 48 hours
Experimental: as §1

786-0 = details: 786-0, Renal Cancer; 10 μM, 48 hours
Experimental: as §1

HOP-92 = details: HOP-92, Non-Small Cell Lung Cancer; 10 μM, 48 hours
Experimental: as §1

DU-145 = details: DU-145, Prostate Cancer; 10 μM, 48 hours
Experimental: as §1

SK-MEL-5 = details: SK-MEL-5, Melanoma; 10 μM, 48 hours
Experimental: as §1

SNB-75 = details: SNB-75, CNS Cancer; 10 μM, 48 hours
Experimental: as §1

OVCAR-5 = details: OVCAR-5, Ovarian Cancer; 10 μM, 48 hours
Experimental: as §1

K-562 = details: K-562, Leukemia; 10 μM, 48 hours
Experimental: as §1

M14 = details: M14, Melanoma; 10 μM, 48 hours
Experimental: as §1

NCI/ADR-RES = details: Ovarian Cancer, 10 μM, 48 hours
Experimental: as §1

CCRF-CEM = details: Leukemia, 10 μM, 48 hours
Experimental: as §1

| Structure (SMILES) | Growth Percent (PC-3) [%] | Growth Percent (UACC-257) [%] | Growth Percent (TK-10) [%] | Growth Percent (NCI-H322M) [%] | Growth Percent (HCT-116) [%] | Growth Percent (SN12C) [%] | Growth Percent (NCI-H23) [%] | Growth Percent (SR) [%] | Growth Percent (OVCAR-3) [%] | Growth Percent (CAKI-1) [%] | Growth Percent (NCI-H522) [%] | Growth Percent (HS 578T) [%] | Growth Percent (UACC-62) [%] | Growth Percent (SF-539) [%] | Growth Percent (UO-31) [%] | Growth Percent (U251) [%] | Growth Percent (SF-295) [%] | Growth Percent (KM12) [%] | Growth Percent (SK-MEL-28) [%] | Growth Percent (OVCAR-8) [%] | other results |
| --- | --- | --- | --- | --- | --- | --- | --- | --- | --- | --- | --- | --- | --- | --- | --- | --- | --- | --- | --- | --- | --- |
| Cc1oc2ccc(O)c(CN3CCCCCC3)c2c1C(=O)Nc1ccc(C(F)(F)F)cc1 [Compound 23] | 45.70 | 82.00 | 81.06 | 69.34 | 32.68 | 66.72 | 69.93 | −8.44 | 62.02 | 50.46 | 72.52 | 65.50 | 67.27 | 61.23 | 40.69 | 55.07 | 48.84 | 65.50 | 76.90 | 66.34 | Growth Percent (NCI-H226): 72.45%; Growth Percent (A549/ATCC): 61.22%; Growth Percent (RPMI-8226): 75.08%; Growth Percent (SNB-19): 69.94%; Growth Percent (SW-620): 67.44%; Growth Percent (786-0): 49.50%; Growth Percent (HOP-92): 34.88%; Growth Percent (DU-145): 64.80%; Growth Percent (SK-MEL-5): 69.97%; Growth Percent (SNB-75): 50.57%; Growth Percent (OVCAR-5): 85.79%; Growth Percent (K-562): 29.63%; Growth Percent (M14): 58.14%; Growth Percent (NCI/ADR-RES): 53.65%; Growth Percent (CCRF-CEM): 65.23% |
| Cc1ccc(NC(=O)c2c(C)oc3ccc(O)c(CN4CCCCCC4)c23)cc1 [Compound 1] | 79.90 | 112.11 | 92.66 | 97.51 | 64.67 | 84.31 | 90.23 | 83.12 | 101.03 | 75.13 | 90.68 | 88.40 | 102.82 | 93.10 | 62.74 | 88.66 | 85.34 | 102.59 | 96.60 | 89.96 | Growth Percent (NCI-H226): 85.66%; Growth Percent (A549/ATCC): 85.87%; Growth Percent (RPMI-8226): 91.38%; Growth Percent (SNB-19): 84.35%; Growth Percent (SW-620): 85.97%; Growth Percent (786-0): 84.68%; Growth Percent (HOP-92): 55.89%; Growth Percent (DU-145): 103.26%; Growth Percent (SK-MEL-5): 86.08%; Growth Percent (SNB-75): 78.34%; Growth Percent (OVCAR-5): 95.63%; Growth Percent (K-562): 75.93%; Growth Percent (M14): 85.90%; Growth Percent (NCI/ADR-RES): 89.34%; Growth Percent (CCRF-CEM): 87.67% |
